Measured values from paper PMC6290777, “Inhalation of the prodrug PI3K inhibitor CL27c improves lung function in asthma and fibrosis” (Nature Communications, 2018).

Legend:
[1] = system: PBMCs; assay: PBMCs proliferation (MTT); assay type: cell-based, human
Procedure: PBMCs in RPMI medium were seeded in a 96-well tissue culture plates at 5 × 10^3 cells/well (Cell Star, Frickenhausen, Germany). PBMCs were activated with vehicle (PBS) or anti-CD3 (5 μg/mL) plus soluble anti-CD28 (2 μg/mL) mAbs (BD Pharmingen, San Jose, CA, USA). Then, the cells were incubated at 37 °C and 5% CO2 for 48 h. Cell proliferation was assayed by MTT (3-(4,5-dimethylthiazol-2-yl)-2,5-diphenyltetrazolium bromide) assay (Roche Life Science, Mannheim, BW, Germany) following the manufacturer’s instructions. Briefly, 10 μL of MTT (3 mg/mL) was added to each well containing cells in 100 μL medium and incubated for 2 h at 37 °C. Then, 100 μL of lysis buffer was added allowing the dissolution of formazan crystals. After 15 min at room temperature the absorbance was read at 560 nm with reference of 690 nm using GloMax®-Multi Microplate Multimode Reader (Promega, Madison, Wisconsin, EUA).

[2] = system: Akt phosphorylation (Ser473) in lung, heart, liver; assay: Insulin stimulation analysis in liver, heart, and lung (pAkt); assay type: in vivo, mice; conditions: inhaled CL27c 2 mg/ml 30 min; insulin 1 UI/kg i.p.
Procedure: Animals were fasted overnight and, the day after, they were treated for 30 min with aerosolized CL27c (2 mg/ml in 0.5 % tylaxopol/saline solution). After 1 h from the CL27c treatment mice were administrated with insulin (1.0 UI kg^−1 diluted in PBS solution, Actrapid, Novo Nordisk, i.p. injection). Ten min after injection, the animals where sacrificed and tissues removed, frozen in liquid nitrogen, and homogenized in lysis buffer (50 mM Tris-HCl, pH = 8, 150 mM NaCl, 1% Triton X-100) supplemented with 50 mM NaF, 2 mM sodium orthovanadate, 1 mM sodium pyro-phosphate, and protease inhibitor cocktail (Roche).
Lung, liver, and heart samples were collected for western blot detection of akt phosphorilation levels. Protein samples were resolved by 10% SDS-PAGE and transferred on to PVDF (Immobilon™-P) membranes. The membranes were blocked with 5% BSA in 1x TBS with 0.3% Tween 20 for 30 min at […]. Then, the membranes were incubated overnight at 4 °C with primary antibodies (phosphorylated Akt serine 473, 1:1000, Cell Signaling Technology, Cat. Number 4060) and 1 h with HRP-conjugated secondary antibody (1:10000). […] For quantification, specific phosphorylation was calculated as the ratio of signals for phosphorylated Akt to the signal of total Akt detected. […]

[3] = system: AKT phosphorylation in IPF human lung fibroblasts; assay: AKT phosphorylation of human lung fibroblasts; assay type: cell-based; conditions: IPF cells; CL27c 10 µM
Procedure: Human lung fibroblast cell culture
Two separate human lung fibroblast cell lines isolated from IPF patients were used: LL97a derived from a person (ATCC, Manassas, USA) and DHLF-IPF (#CC-7231, Lonza, Switzerland). Control cell lines were CCD-16Lu, obtained from a person that died of astrocytoma –a disease unrelated to IPF - (ATCC) and NHLF (#CC-2512; Lonza). LL97a and CCD-16Lu cells were cultured in Dulbecco's modified Eagles medium (DMEM, Sigma Aldrich, Dorset, UK). Media was supplemented with penicillin/streptomycin (100 U/ml, Thermo-Fischer, Germany) and 10% fetal bovine serum (FBS, Thermo-Fischer, Germany). Cells from Lonza were cultured in the FGMTM (#CC-3132, Lonza). […]
Caliper based assay, the reaction was terminated by addition of EDTA buffer. Substrate and product were separated and quantified electrophoretically using the microfluidic-based and the assay plate was read on Caliper LabChip 3000 Drug Discovery System from Caliper Life Sciences (Walthan, MA, USA). ADP Glo was another method of detection used for some kinase assays where data was obtained by quantifying the intensity of luminescence. For ADP Glo based assay, the reaction was terminated by applying the Promega ADP Glo Kinase Assay kit and the assay plate was read on a LJL Biosystems Analyst HT. […]

COC(=O)c1cccc(Cn2cc(-c3cccc4c(=O)cc(N5CCOCC5)[nH]c34)nn2)c1 [CL27c]
anti-proliferative effect on PBMC relative to dexamethasone ([1]; CL27c 5 μM): comparable to the reference compound dexamethasone
proliferation of PBMC ([1]; stimulated with antibodies against CD28, CL27c 0.5 and 5 µM, concentration-dependent): block proliferation
insulin-evoked Akt phosphorylation (Ser473) in lungs [2]: did not show elevation of protein kinase B (Akt) phosphorylation
insulin-evoked Akt phosphorylation in heart or liver [2]: insulin was able to normally increase Akt phosphorylation
serum-induced AKT phosphorylation [3]: effectively blunted serum-induced AKT phosphorylation
